Assay results as given in US20260285875A1, “INHIBITORS OF PARG” (858 Therapeutics, Inc., priority 2023, published 2026).
pIC50: −log10 of the molar value.

Each compound was assayed against T1, cellular PARG (Homo sapiens, UniProt Q86W56) (assay: Nuclear PAR accumulation assay (immunofluorescence high-content imaging, MMS-treated HeLa cells)). Details: 1 hour compound then MMS 50 μg/mL for an additional hour.
T1 construct: endogenous in cells; host or cells: HeLa
T1 sequence (Q86W56 whole entry): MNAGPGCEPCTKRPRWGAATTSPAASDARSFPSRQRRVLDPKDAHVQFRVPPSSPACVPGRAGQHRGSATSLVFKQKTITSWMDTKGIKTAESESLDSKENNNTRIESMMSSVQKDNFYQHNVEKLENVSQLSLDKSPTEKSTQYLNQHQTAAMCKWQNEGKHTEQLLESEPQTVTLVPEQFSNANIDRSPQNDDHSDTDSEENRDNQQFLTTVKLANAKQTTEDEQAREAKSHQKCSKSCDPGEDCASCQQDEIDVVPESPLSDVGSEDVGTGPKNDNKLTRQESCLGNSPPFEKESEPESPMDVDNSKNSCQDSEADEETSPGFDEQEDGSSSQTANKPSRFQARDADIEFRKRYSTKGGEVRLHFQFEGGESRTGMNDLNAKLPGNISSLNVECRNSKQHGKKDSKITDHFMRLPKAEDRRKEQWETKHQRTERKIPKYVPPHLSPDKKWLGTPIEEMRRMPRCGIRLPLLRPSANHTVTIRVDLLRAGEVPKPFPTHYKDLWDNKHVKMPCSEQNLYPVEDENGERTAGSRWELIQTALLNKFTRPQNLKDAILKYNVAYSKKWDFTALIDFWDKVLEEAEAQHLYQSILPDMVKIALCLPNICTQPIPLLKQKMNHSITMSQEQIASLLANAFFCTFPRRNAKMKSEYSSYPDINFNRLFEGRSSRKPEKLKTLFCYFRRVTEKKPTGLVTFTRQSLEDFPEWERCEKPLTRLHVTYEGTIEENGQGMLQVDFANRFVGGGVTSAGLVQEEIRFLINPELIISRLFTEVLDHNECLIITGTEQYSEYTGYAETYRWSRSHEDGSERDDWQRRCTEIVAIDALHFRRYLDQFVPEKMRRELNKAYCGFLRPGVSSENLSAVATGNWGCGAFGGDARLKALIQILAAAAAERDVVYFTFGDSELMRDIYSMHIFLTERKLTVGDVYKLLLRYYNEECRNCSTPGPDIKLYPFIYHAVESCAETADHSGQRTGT
Format: cell-based
Outline: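 HeLa cells pretreated with compound for 1 h at 37° C, then given 50 μg/mL MMS for another hour. After methanol fixation, PAR was immunostained with DAPI nuclear counterstain; per-nucleus intensity and percent PAR-positive cells were imaged at 20× (≥1,000 cells/well). IC50 from four-parameter logistic fit.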
For `[2H]C([2H])(c1cnn(C)c1)N1C(=O)c2cc(S(=O)(=O)NC3(C)CC3)ccc2N2C1=NC[C@H]2C#C` [Example 43, (R)-1-ethynyl-4-((1-methyl-1H-pyrazol-4-yl)methyl-d2)-N-(1-methylcyclopropyl)-5-oxo-1,2,4,5-tetrahydroimidazo[1,2-a]quinazoline-7-sulfonamide], the pIC50 was > 7.00.
A pIC50 of 6.00 to 7.00 was found for `C#C[C@H]1CN=C2N(Cc3cnn(C)c3)C(=O)c3cc(S(=O)(=O)NC4(C)CC4)cc(Br)c3N21` [Example 94, (S)-9-bromo-1-ethynyl-4-((1-methyl-1H-pyrazol-4-yl)methyl)-N-(1-methylcyclopropyl)-5-oxo-1,2,4,5-tetrahydroimidazo[1,2-a]quinazoline-7-sulfonamide] in this work.
For `CN1C(=O)c2cc(S(=O)(=O)NC3(C)CC3)ccc2N2C1=NC[C@H]2C#Cc1ccc2c(cnn2C)c1` [Example 148, (R)-4-methyl-1-((1-methyl-1H-indazol-5-yl)ethynyl)-N-(1-methylcyclopropyl)-5-oxo-1,2,4,5-tetrahydroimidazo[1,2-a]quinazoline-7-sulfonamide], the pIC50 was > 7.00.
A pIC50 of 6.00 to 7.00 was found for `CN1C(=O)c2cc(S(=O)(=O)NC3(C)CC3)ccc2N2C1=NCC2C#Cc1c[nH]c2cnccc12` (stereo not shown) [Example 168, 1-((1H-pyrrolo[2,3-c]pyridin-3-yl)ethynyl)-4-methyl-N-(1-methylcyclopropyl)-5-oxo-1,2,4,5-tetrahydroimidazo[1,2-a]quinazoline-7-sulfonamide] in this work.
`[2H]C([2H])(c1cnn(C)c1)N1C(=O)c2cc(S(=O)(=O)NC3(C)CC3)ccc2N2C1=NC[C@H]2C#Cc1cncnc1` [Example 246, (R)-4-((1-methyl-1H-pyrazol-4-yl)methyl-d2)-N-(1-methylcyclopropyl)-5-oxo-1-(pyrimidin-5-ylethynyl)-1,2,4,5-tetrahydroimidazo[1,2-a]quinazoline-7-sulfonamide] was tested, and the pIC50 was > 7.00.
For `Cn1cc(CN2C(=O)c3cc(S(=O)(=O)NC4(C)CC4)ccc3N3C2=N[C@H]2CCOC[C@H]23)cn1` [Example 157, (7aS,1laS)-6-((1-methyl-1H-pyrazol-4-yl)methyl)-N-(1-methylcyclopropyl)-5-oxo-6,7a,8,9,11,11a-hexahydro-5H-pyrano[4′,3′:4,5]imidazo[1,2-a]quinazoline-3-sulfonamide], the pIC50 was > 7.00.
A pIC50 of 6.00 to 7.00 was found for `C[C@@H]1CN=C2N(Cc3cccnc3CC#N)C(=O)c3cc(S(=O)(=O)NC4(C)CC4)ccc3N21` [Example 247, (R)-4-((2-(cyanomethyl)pyridin-3-yl)methyl)-1-methyl-N-(1-methylcyclopropyl)-5-oxo-1,2,4,5-tetrahydroimidazo[1,2-a]quinazoline-7-sulfonamide] in this work.
With `Cn1cc(CN2C(=O)c3cc(S(=O)(=O)NC4(C)CC4)ccc3N3C2=NCC3COc2ccccc2F)cn1` (stereo not shown) [Example 151, 1-((2-fluorophenoxy)methyl)-4-((1-methyl-1H-pyrazol-4-yl)methyl)-N-(1-methylcyclopropyl)-5-oxo-1,2,4,5-tetrahydroimidazo[1,2-a]quinazoline-7-sulfonamide] the pIC50 was > 7.00.
With `CCN1C(=O)c2cc(S(=O)(=O)NC3(C)CC3)ccc2N2C1=NC[C@H]2C#Cc1ccnn1C` [Example 198, (R)-4-ethyl-1-((1-methyl-1H-pyrazol-5-yl)ethynyl)-N-(1-methylcyclopropyl)-5-oxo-1,2,4,5-tetrahydroimidazo[1,2-a]quinazoline-7-sulfonamide] the pIC50 was > 7.00.
For `CN1C(=O)c2cc(S(=O)(=O)NC3(C)CC3)c(F)cc2N2C1=NCC2C#Cc1cnc2cccnn12` (stereo not shown) [Example 215, 8-fluoro-1-(imidazo[1,2-b]pyridazin-3-ylethynyl)-4-methyl-N-(1-methylcyclopropyl)-5-oxo-1,2,4,5-tetrahydroimidazo[1,2-a]quinazoline-7-sulfonamide], the pIC50 was > 7.00.
For `CCN1C(=O)c2cc(S(=O)(=O)NC3(C)CC3)ccc2N2C1=NC[C@H]2C#Cc1c(F)cnn1C` [Example 245, (R)-4-ethyl-1-((4-fluoro-1-methyl-1H-pyrazol-5-yl)ethynyl)-N-(1-methylcyclopropyl)-5-oxo-1,2,4,5-tetrahydroimidazo[1,2-a]quinazoline-7-sulfonamide], the pIC50 was > 7.00.
`Cc1cc(C#C[C@@H]2CN=C3N(C)C(=O)c4cc(S(=O)(=O)NC5(C)CC5)ccc4N32)ccn1` [Example 216, (R)-4-methyl-N-(1-methylcyclopropyl)-1-((2-methylpyridin-4-yl)ethynyl)-5-oxo-1,2,4,5-tetrahydroimidazo[1,2-a]quinazoline-7-sulfonamide] was tested, and the pIC50 was > 7.00.
For `Cn1cc(CN2C(=O)c3cc(S(=O)(=O)NC4(C)CC4)ccc3N3C2=NC[C@H]3COc2cccc(F)c2)cn1` [Example 30, (S)-1-((3-fluorophenoxy)methyl)-4-((1-methyl-1H-pyrazol-4-yl)methyl)-N-(1-methylcyclopropyl)-5-oxo-1,2,4,5-tetrahydroimidazo[1,2-a]quinazoline-7-sulfonamide], the pIC50 was > 7.00.
A pIC50 of 6.00 to 7.00 was found for `Cc1nc([C@@H]2CN=C3N(Cc4cnn(C)c4)C(=O)c4cc(S(=O)(=O)NC5(C)CC5)ccc4N32)co1` [Example 119, (S)-4-((1-methyl-1H-pyrazol-4-yl)methyl)-N-(1-methylcyclopropyl)-1-(2-methyloxazol-4-yl)-5-oxo-1,2,4,5-tetrahydroimidazo[1,2-a]quinazoline-7-sulfonamide] in this work.
A pIC50 of 6.00 to 7.00 was found for `CC1(NS(=O)(=O)c2ccc3c(c2)C(=O)N(Cc2cnn4c2CNCC4)C2=N[C@H]4CCC[C@H]4N23)CC1` [Example 290, (7aS,10aR)-N-(1-methylcyclopropyl)-5-oxo-6-((4,5,6,7-tetrahydropyrazolo[1,5-a]pyrazin-3-yl)methyl)-6,7a,8,9,10,10a-hexahydro-5H-cyclopenta[4,5]imidazo[1,2-a]quinazoline-3-sulfonamide] in this work.
`CCN(CC)CC#C[C@@H]1CN=C2N(Cc3cnn(C)c3)C(=O)c3cc(S(=O)(=O)NC4(C)CC4)ccc3N21` [Example 81, (R)-1-(3-(diethylamino)prop-1-yn-1-yl)-4-((1-methyl-1H-pyrazol-4-yl)methyl)-N-(1-methylcyclopropyl)-5-oxo-1,2,4,5-tetrahydroimidazo[1,2-a]quinazoline-7-sulfonamide] was tested, and the pIC50 was > 7.00.
`Cn1cc(CN2C(=O)c3cc(S(=O)(=O)NC4(C)CC4)ccc3N3C2=NC[C@H]3C2CCC2)cn1` [Example 118, (R)-1-cyclobutyl-4-((1-methyl-1H-pyrazol-4-yl)methyl)-N-(1-methylcyclopropyl)-5-oxo-1,2,4,5-tetrahydroimidazo[1,2-a]quinazoline-7-sulfonamide] was tested, and the pIC50 was > 7.00.
For `[2H]C([2H])(c1cnn(C)c1)N1C(=O)c2cc(S(=O)(=O)NC3(C)CC3)ccc2N2C1=NC[C@H]2C#CC1=CCNCC1` [Example 281, (R)-4-((1-methyl-1H-pyrazol-4-yl)methyl-d2)-N-(1-methylcyclopropyl)-5-oxo-1-((1,2,3,6-tetrahydropyridin-4-yl)ethynyl)-1,2,4,5-tetrahydroimidazo[1,2-a]quinazoline-7-sulfonamide], the pIC50 was > 7.00.
With `CN(C)C1([C@@H]2CN=C3N(Cc4cnn(C)c4)C(=O)c4cc(S(=O)(=O)NC5(C)CC5)ccc4N32)CC1` [Example 270, (S)-1-(1-(dimethylamino)cyclopropyl)-4-((1-methyl-1H-pyrazol-4-yl)methyl)-N-(1-methylcyclopropyl)-5-oxo-1,2,4,5-tetrahydroimidazo[1,2-a]quinazoline-7-sulfonamide] the pIC50 was > 7.00.
